US20140295402A1, “METHODS AND MATERIALS FOR PROLONGING USEFUL STORAGE OF RED BLOOD CELL PREPARATIONS AND PLATELET PREPARATIONS” (priority 2011, published 2014)

Assays:
[1] = system: red blood cell preparation; test: Storage of red blood cell preparations in blood bags with CO2: pCO2, lactate, glucose and pH levels; format: cell-based; conditions: for Glucose / Lactate: red blood cell preparation
Description: Red blood cells were collected and processed using standard techniques and stored in standard blood bags. Prior to collecting the red blood cells, an empty blood bag containing anti-coagulated citrate phosphate dextrose with adenine (AS1) was flushed with CO2 for one minute. The collection bag was then filled with blood from a donor. Next, 50 cubic centimeters of CO2 were added to the bag via the sterile docking port. The bag was gently inverted for 30 seconds and then placed upright. Using an empty syringe, the 50 cubic centimeters of air/CO2 was removed from the bag through the sterile docking port. The controls were red blood cell preparations placed in blood bags not flushed with CO2 and not exposed to 50 cubic centimeters of CO2.
The control and CO2 treated red blood cell preparations were tested for pCO2 (or pO2) levels, lactate levels, glucose levels, and pH levels at days 0, 14, and 21 (Table 1). […] This fall in pH is reversible, and pH levels can return to normal values of […] when normal pCO2 levels (e.g., 40-60 mmHg) are re-established.

[2] = system: platelets in platelet-rich plasma (PRP); test: Platelet aggregation of PRP by optical aggregometry after equilibration with 99% CO2; format: cell-based, human
Description: Fresh human whole blood was drawn into 3.2% sodium citrate, and platelet-rich plasma (PRP) was prepared. Control citrated PRP was stored at room temperature in a polypropylene tube. CO2 was exposed to the air/fluid interface of PRP using a 99.9% CO2 tank. CO2 was administered for approximately 60 seconds during which time the pH dropped from an average value of 7.4 to 6.4.
Using a Chronolog 700 platelet aggregometer, platelet aggregation was performed pre- and post-CO2 to ADP, AA, and Epi. Platelet aggregometry was carried out as described elsewhere (Born and Cross, J. Physiol., 168:178-195 (1963)). The assay was performed at 37° C. with a sample stir speed of 1200 r.p.m. Each sample consisted of 450 μL platelet rich plasma.
In another study, the impact of CO2 on platelet function was explored by equilibrating platelet-rich plasma (PRP) with 99% CO2. The PRP was prepared by low-speed centrifugation of blood anticoagulated with 3.2% sodium citrate and kept in capped polypropylene tubes. Platelet function was measured by optical aggregometry with ADP and epinephrine as triggers. Equilibration with CO2 under a positive flow of gas was monitored by the fall in pH from 7.2 to 6.4, which typically occurs within 60 seconds. Degassing of CO2 by a flow of room air over the PRP was verified by the return to pH 7.2. Immediately after removal of the PRP from the CO2 atmosphere, aggregation to ADP and epinephrine was suppressed (FIG. 18, first set). When the samples had returned to pH 7.2, aggregation to both triggers was restored (FIG. 18, center set).

[3] = system: S. aureus; test: Bacterial growth in inoculated apheresis platelet unit, quantitative culture; format: cell-based; conditions: platelets exposed to 99% CO2 for 10 minutes
Description: (§1) Outdated apheresis platelet unit (day 6) was obtained from the Mayo Clinic components laboratory. About half of the platelet unit was perfused with 99% CO2 gas for 10 minutes with mixing. Control samples without CO2 exposure and CO2-treated samples of 10 mL volume were inoculated with clinical isolates of eight different organisms. Control and CO2 samples were spiked with identical bacterial loads. Quantitative culture using 5% sheep blood agar plates was conducted immediately following inoculation (0 hours) and at 24 and 48 hour time points. Time 0 hour inoculation load was selected to compensate for observed “spike and die” in outdated apheresis platelet units. The time 0 hour value represented the value of the initial spike.

[4] = system: Klebsiella oxytoca; test: as above; format: cell-based; conditions: platelets exposed to 99% CO2 for 10 minutes
Description: as §1

[5] = system: E. coli; test: as above; format: cell-based; conditions: platelets exposed to 99% CO2 for 10 minutes
Description: as §1

[6] = system: Enterobacter cloacae; test: as above; format: cell-based; conditions: platelets exposed to 99% CO2 for 10 minutes
Description: as §1

[7] = system: Bacillus cereus; test: as above; format: cell-based; conditions: platelets exposed to 99% CO2 for 10 minutes
Description: as §1

[8] = system: S. pyogenes; test: as above; format: cell-based; conditions: platelets exposed to 99% CO2 for 10 minutes
Description: as §1

[9] = system: Corynebacterium; test: as above; format: cell-based; conditions: platelets exposed to 99% CO2 for 10 minutes
Description: as §1

[10] = system: S. epidermidis; test: as above; format: cell-based; conditions: platelets exposed to 99% CO2 for 10 minutes
Description: as §1

[11] = system: Bacillus cereus; test: Bacterial growth in spiked PRP, quantitative culture after 30 hours; format: cell-based; conditions: PRP spiked with 10 CFU, approximately 30 hours at room temperature
Description: (§2) Clinical isolates of Bacillus cereus and Pseudomonas aeruginosa were spiked into control and CO2 treated platelets at a concentration of 10 CFU (i.e., 10 bacteria total, not 10 CFU/mL). The platelets were stored for approximately 30 hours at room temperature on a platelet agitator. After 30 hours, quantitative culture was performed on serial dilutions of the platelet sample on 5% sheep blood agar plates.

[12] = system: Pseudomonas aeruginosa; test: as above; format: cell-based; conditions: PRP spiked with 10 CFU, approximately 30 hours at room temperature
Description: as §2

[13] = system: platelets; test: ATP secretion of platelets induced with 1 μM thrombin (Zylux luminometer); format: cell-based, human; conditions: after 24 hours storage at room temperature
Description: ATP secretion was performed using a Zylux luminometer where the secretion was induced using 1 μM thrombin. […] However, the CO2 treated platelets had approximately 80% of baseline secretion after 24 hours storage.

[14] = storage with CO2, compared to controls

O=C=O [CO2]
Glucose ([1]; day 0 of storage): 571 mg/dL | Lactate ([1]; day 0 of storage): 1.2 µmol/mL | Glucose ([1]; day 14 of storage): 503 mg/dL | Lactate ([1]; day 14 of storage): 5 µmol/mL | Glucose ([1]; day 21 of storage): 478 mg/dL | Lactate ([1]; day 21 of storage): 5.3 µmol/mL | glucose consumption [1, 14]: inhibition | lactate formation [1, 14]: inhibition | aggregation ([2]; after 24 hours under CO2): equivalent to that of controls | aggregation to ADP and epinephrine ([2]; after samples had returned to pH 7.2): restored | aggregation to ADP and epinephrine ([2]; immediately after removal of the PRP from the CO2 atmosphere): suppressed | bacterial growth ([3]; 0 hours (initial spike)): 1.17E+03 CFU/mL | bacterial growth ([3]; 24 hours): 3.20E+03 CFU/mL | bacterial growth ([3]; 48 hours): 2.70E+04 CFU/mL | bacterial growth ([4]; 0 hours (initial spike)): 8.10E+02 CFU/mL | bacterial growth ([4]; 24 hours): 1.15E+04 CFU/mL | bacterial growth ([4]; 48 hours): 4.30E+05 CFU/mL | bacterial growth ([5]; 24 hours): 1.80E+02 CFU/mL | bacterial growth ([5]; 48 hours): 5.20E+03 CFU/mL | bacterial growth ([6]; 0 hours (initial spike)): 1.22E+03 CFU/mL | bacterial growth ([6]; 24 hours): 1.20E+06 CFU/mL | bacterial growth ([6]; 48 hours): 8.60E+07 CFU/mL | bacterial growth ([7]; 0 hours (initial spike)): 1.00E+01 CFU/mL | bacterial growth ([7]; 24 hours): no | bacterial growth ([7]; 48 hours): no | bacterial growth ([8]; 0 hours (initial spike)): 1.55E+03 CFU/mL | bacterial growth ([8]; 24 hours): 1.20E+05 CFU/mL | bacterial growth ([8]; 48 hours): 8.00E+07 CFU/mL | bacterial growth ([9]; 0 hours (initial spike)): 7.90E+02 CFU/mL | bacterial growth ([9]; 24 hours): 2.70E+02 CFU/mL | bacterial growth ([9]; 48 hours): 4.20E+02 CFU/mL | bacterial growth ([10]; 0 hours (initial spike)): 6.10E+02 CFU/mL | bacterial growth ([10]; 24 hours): 3.30E+02 CFU/mL | bacterial growth ([10]; 48 hours): 4.20E+02 CFU/mL | bacterial growth [11]: no growth | bacterial growth [12]: no growth | ATP secretion, of baseline [13]: approximately 80%
